Test results reported in patent US9802927B2, “Oxadiazine compounds and methods of use thereof” (Denali Therapeutics, Inc., priority 2015, dated 2017).

System: Aβ42
Experiment: In vitro cell screening assay in H4 cells expressing human APP751: Aβ42 by sandwich ELISA
Type: cell-based
Details: compounds 0.003-10 μM, incubated overnight (16-18 h), sandwich ELISA of supernatant
Procedure, shortened: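 H4 neuroglioma cells stably expressing wild-type human APP751, switched to Pro293 medium and treated with compounds (0.003-10 μM, 0.33% DMSO) for 16-18 h at 37 °C. Supernatant Aβ42 quantified by sandwich ELISA (C-terminal capture, 4G8-HRP detection, A450); EC50 by sigmoidal fit normalized to DMSO and DAPT controls.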

Structure (SMILES)	EC50
COc1nc(C2=NOCC(c3cn(C)c4cc(Cl)ccc34)N2)ccc1-n1cnc(C)c1 (single isomer, unassigned; (+)) [Example 194A, (+)-5-(6-chloro-1-methyl-1H-indol-3-yl)-3-(6-methoxy-5-(4-methyl-1H-imidazol-1-yl)pyridin-2-yl)-5,6-dihydro-4H-1,2,4-oxadiazine]	7.7 nM
COc1nc(C2=NOCC(c3cn(C)c4cc(F)c(Cl)cc34)N2)ccc1-n1cnc(C)c1 (single isomer, unassigned; (-)) [Example 216A, (−)-5-(5-chloro-6-fluoro-1-methyl-1H-indol-3-yl)-3-(6-methoxy-5-(4-methyl-1H-imidazol-1-yl)pyridin-2-yl)-5,6-dihydro-4H-1,2,4-oxadiazine]	89.5 nM
COc1nc(C2=NOCC(c3cn(C)c4ccc(Cl)cc34)N2)ccc1-n1cnc(C)c1 (single isomer, unassigned; (-)) [Example 193A, (−)-5-(5-chloro-1-methyl-1H-indol-3-yl)-3-(6-methoxy-5-(4-methyl-1H-imidazol-1-yl)pyridin-2-yl)-5,6-dihydro-4H-1,2,4-oxadiazine]	71 nM
COc1nc(C2=NOCC(c3cnc4ccc(Cl)cn34)N2)ccc1-n1cnc(C)c1 (single isomer, unassigned; (+)) [Example 269B, (+)-5-(6-chloroimidazo[1,2-a]pyridin-3-yl)-3-(6-methoxy-5-(4-methyl-1H-imidazol-1-yl)pyridin-2-yl)-5,6-dihydro-4H-1,2,4-oxadiazine]	240 nM
COc1nc(C2=NOCC(c3ccc(C#N)cc3)N2)ccc1-n1cnc(C)c1 (single isomer, unassigned; (-)) [Example 151A, (−)-4-(3-(6-methoxy-5-(4-methyl-1H-imidazol-1-yl)pyridin-2-yl)-5,6-dihydro-4H-1,2,4-oxadiazin-5-yl) benzonitrile]	> 3000 nM
COc1nc(C2=NOCC(c3cccc(C(F)(F)F)c3)N2C)ccc1-n1cnc(C)c1 (stereo not drawn) [Example 213, 3-(6-methoxy-5-(4-methyl-1H-imidazol-1-yl)pyridin-2-yl)-4-methyl-5-(3-(trifluoromethyl)phenyl)-5,6-dihydro-4H-1,2,4-oxadiazine]	55.7 nM
COc1nc(C2=NOCC(c3ccc4c(c3)OC(F)(F)O4)N2)ccc1-n1cnc(C)c1 (single isomer, unassigned; (-)) [Example 225A]	> 3000 nM
COc1nc(C2=NOCC(c3cn(C)c4cc(F)c(C)cc34)N2)ccc1-n1cnc(C)c1 (single isomer, unassigned; (-)) [Example 257A, (−)-5-(6-fluoro-1,5-dimethyl-1H-indol-3-yl)-3-(6-methoxy-5-(4-methyl-1H-imidazol-1-yl)pyridin-2-yl)-5,6-dihydro-4H-1,2,4-oxadiazine]	120 nM
COc1nc(C2=NOCC(c3ccc(F)cc3)N2)ccc1-n1cnc(C)c1 (single isomer, unassigned) [Example 40A, 5-(4-fluorophenyl)-3-(6-methoxy-5-(4-methyl-1H-imidazol-1-yl)pyridin-2-yl)-5,6-dihydro-4H-1,2,4-oxadiazine]	> 3000 nM
COc1nc(C2=NOCC(c3c[nH]c4ccccc34)N2)ccc1-n1cnc(C)c1 (single isomer, unassigned) [Example 47B, 5-(1H-indol-3-yl)-3-(6-methoxy-5-(4-methyl-1H-imidazol-1-yl)pyridin-2-yl)-5,6-dihydro-4H-1,2,4-oxadiazine]	23.1 nM
COc1nc(C2=NOCC(c3ccc(OC(F)F)cc3)N2)ccc1-n1cnc(C)c1 (single isomer, unassigned; (+)) [Example 93B, (+)-5-(4-(difluoromethoxy)phenyl)-3-(6-methoxy-5-(4-methyl-1H-imidazol-1-yl)pyridin-2-yl)-5,6-dihydro-4H-1,2,4-oxadiazine]	73 nM
COc1nc(C2=NOCC(C3Cc4ccccc4C3)N2)ccc1-n1cnc(C)c1 (single isomer, unassigned; (+)) [Example 246B, (+)-5-(2,3-dihydro-1H-inden-2-yl)-3-(6-methoxy-5-(4-methyl-1H-imidazol-1-yl)pyridin-2-yl)-5,6-dihydro-4H-1,2,4-oxadiazine]	25.7 nM
COc1nc(C2=NOCC(c3cn(C4CC4)c4cc(F)ccc34)N2)ccc1-n1cnc(C)c1 (single isomer, unassigned; (-)) [Example 228A, (−)-5-(1-cyclopropyl-6-fluoro-1H-indol-3-yl)-3-(6-methoxy-5-(4-methyl-1H-imidazol-1-yl)pyridin-2-yl)-5,6-dihydro-4H-1,2,4-oxadiazine]	262 nM
COc1nc(C2=NOCC(c3cn(C)c4ccccc34)N2)ccc1-n1cnc(C)c1 (single isomer, unassigned; (+)) [Example 189A, (+)-3-(6-methoxy-5-(4-methyl-1H-imidazol-1-yl)pyridin-2-yl)-5-(1-methyl-1H-indol-3-yl)-5,6-dihydro-4H-1,2,4-oxadiazine]	24 nM
COc1nc(C2=NOCC(c3ccc(C(F)(F)F)c(Cl)c3)N2)ccc1-n1cnc(C)c1 (single isomer, unassigned; (-)) [Example 262A, (−)-5-(3-chloro-4-(trifluoromethyl)phenyl)-3-(6-methoxy-5-(4-methyl-1H-imidazol-1-yl)pyridin-2-yl)-5,6-dihydro-4H-1,2,4-oxadiazine]	> 3000 nM
COc1nc(C2=NOCC(c3noc4ccccc34)N2)ccc1-n1cnc(C)c1 (single isomer, unassigned) [Example 174A, 3-(3-(6-methoxy-5-(4-methyl-1H-imidazol-1-yl)pyridin-2-yl)-5,6-dihydro-4H-1,2,4-oxadiazin-5-yl) benzo[d]isoxazole]	> 3000 nM
COc1nc(C2=NOCC(c3ccc(OC(F)(F)F)cc3)N2)ccc1-n1cnc(C)c1 (single isomer, unassigned; (+)) [Example 70B, (+)-3-(6-methoxy-5-(4-methyl-1H-imidazol-1-yl)pyridin-2-yl)-5-(4-(trifluoromethoxy)phenyl)-5,6-dihydro-4H-1,2,4-oxadiazine]	21.8 nM
COc1nc(C2=NOCC(c3cccc(C(F)(F)F)c3)N2)ccc1-n1cnc(C)c1 (single isomer, unassigned; (+)) [Example 113B, (+)-3-(6-methoxy-5-(4-methyl-1H-imidazol-1-yl)pyridin-2-yl)-5-(3-(trifluoromethyl)phenyl)-5,6-dihydro-4H-1,2,4-oxadiazine]	43 nM
COc1nc(C2=NOCC(c3cn(C)c4cc(F)c(F)cc34)N2)ccc1-n1cnc(C)c1 (single isomer, unassigned; (-)) [Example 223A, (−)-5-(5,6-difluoro-1-methyl-1H-indol-3-yl)-3-(6-methoxy-5-(4-methyl-1H-imidazol-1-yl)pyridin-2-yl)-5,6-dihydro-4H-1,2,4-oxadiazine]	130 nM
COc1nc(C2=NOCC(c3ccc(C)c(Cl)c3)N2)ccc1-n1cnc(C)c1 (single isomer, unassigned; (+)) [Example 218B, (+)-5-(3-chloro-4-methylphenyl)-3-(6-methoxy-5-(4-methyl-1H-imidazol-1-yl)pyridin-2-yl)-5,6-dihydro-4H-1,2,4-oxadiazine]	14.1 nM
COc1nc(C2=NOCC(c3cn(C)c4cc(C#N)ccc34)N2)ccc1-n1cnc(C)c1 (single isomer, unassigned; (+)) [Example 249B, (+)-3-(3-(6-methoxy-5-(4-methyl-1H-imidazol-1-yl)pyridin-2-yl)-5,6-dihydro-4H-1,2,4-oxadiazin-5-yl)-1-methyl-1H-indole-6-carbonitrile]	30.2 nM
